One compound from patent US20210340629A1, “BIOMARKERS FOR CANCER THERAPY” (The Council of the Queensland Institute of Medical Research, priority 2018, published 2021) can be followed below.

What all share (type): cell-based, human
In assay [1] the test system is C092 cell line. As to the kind of experiment: Cell viability of C092 with LC3B knock down following G9a inhibitor treatment. The conditions noted are these: data not shown. From the text: Therefore, the basal levels of important autophagy related proteins were examined in the melanoma cell lines used in this study. It is has been shown that the inhibition of G9a can cause an induction of the autophagy-related gene 5 (ATG5), Beclin-1 (known also as ATG6) and the conversion of microtubule-associated protein 1 light chain 3 beta (MAP1LC3B or LC3B for short) I (17 KDa) to LCB3 II (15 KDa) through proteolytic cleavage and lipidation (de Narvajas et al. (2013) and Li et a. (2015). These changes are considered a hallmark of mammalian autophagy. When cells undergo autophagy, conversion of a fraction of cytoplasmic LC3B Ito autophagic membrane form LC3B II can be detected by western blot or by immunofluorescence. This conversion correlates with autophagic activity (Kabeya et al (2000) Embo J 19, 5720-5728), therefore the levels of LC3B II can be considered a reliable marker of autophagy. […] To assess whether lowering LC3B levels in the C092 non-responsive cell line would allow increased sensitivity to the G9a inhibitor treatment, cell viability of C092 following G9a inhibitor treatment was assessed.

Assay [2] relates to MAP1LC3B. As to the kind of experiment: Quantitative real time PCR of MAP1LC3B expression in melanoma cell lines. As to conditions: 24 hours. As for the experimental part:
(§1) Quantitative RT-PCR and ChIP assays were conducted as previously described (Lee et al. (2010) Mol Cell 39, 71-85). Briefly, total RNA was isolated from either the tumor cells or from xenografts using Trizol (Invitrogen) and reverse transcription was performed from 2 μg of total RNA using the Superscript III cDNA synthesis system (Invitrogen). The abundance of mRNA was detected by an ABI VIIA7 system with SYBR Green Master Mix (Life Technologies). Primer pairs were designed to amplify 90-150 bp mRNA specific fragments and were confirmed as unique products by melting curve analysis. The quantity of mRNA was calculated using the ΔΔCt method and normalized to HPRT. All reactions were performed in triplicates.
(In general: Real-time PCR tracks product formation cycle by cycle.)

In assay [3] the test system is MAP1LC3B promoter. The assay can be described thus: Chromatin immunoprecipitation (ChIP) on the MAP1LC3B promoter. As to conditions: D05 cells, 5 μM, 24 h, FIG. 9. As for the experimental part: In order to ascertain whether the inhibition of G9a directly impacts MAP1LC3B expression, chromatin immunoprecipitation (ChIP) was performed on the MAP1LC3B promoter. Changes in histone H3K9 dimethylation (H3K9me2) and acetylation (H3K9Ac), as well as the recruitment of RNA Pol II, were compared between vehicle or UNC0642 treated cells (FIG. 9). Consistent with the increase in gene expression observed in FIG. 8, there was a greater than 4-fold reduction in H3K9me2 concomitant with an increase in RNA Pol II recruitment at the MAP1LC3B promoter following UNC0642 treatment.
as §1

Assay [4] relates to PARP. As to the kind of experiment: PARP cleavage as a measure of apoptosis. As to conditions: any cell line treated, data not shown. From the text:
Having established that G9a inhibition is effective in inducing death of melanoma cells in vitro, the molecular basis for this effect was then investigated. First, cells treated with UNC0642 were examined for its effect on the cleavage of PARP as a measure of apoptosis.

The test system of assay [5] is D05 and C008 melanoma cell lines. The assay can be described thus: Proliferation by IncuCyte Zoom real time cell imaging, sensitive lines. As for the experimental part: Four cell lines were then chosen for further analysis. These were C006 (NRAS mt), C092 (Triple wt), C008 (NF1 mt) and D05 (BRAF mt). These four lines are representatives of the 4 cutaneous melanoma genomic subtypes and include 2 lines (C008 and D05) that were very sensitive to the inhibitor and 2 lines that were less sensitive (C006 and C092). Proliferation of these lines was evaluated by real time cell imaging using IncuCyte Zoom where cells were grown for 48 hours in the presence or absence of 5 μM UNC0642.
For proliferation studies, cells (5×10^3) were seeded in 96-place wells and allowed to adhere overnight, and incubated in fresh growth medium in the presence of either the G9a inhibitor UNC0642 (Sigma Aldrich) or the vehicle control DMSO (Sigma Aldrich). Proliferation was evaluated via real-time imaging using IncuCyte Zoom (Essen BioScience) and/or by performing a 3-(4,5-dimethylthiazol-2-yl)-2,5-diphenyltetrazolium bromide ([…]) assay. After monitoring the cells, 20 μL of MTT (5 mg/mL; Sigma-Aldrich) was added. The plates were incubated at 37° C. for 3 h before the supernatants were removed, and 100 μL of isopropanol was added to each well. The absorbance value (optical density) of each well was measured at 570 nm.

With `COc1cc2c(NC3CCN(C(C)C)CC3)nc(N3CCC(F)(F)CC3)nc2cc1OCCCN1CCCC1` [UNC0642], the “cell viability following G9a inhibitor treatment” value in assay [1] is listed as “significantly reduced”. Also, the “induction of MAP1LC3B expression” value in assay [2] (less sensitive cells (C006 and C092), no statistically significant difference to vehicle, FIG. 8) was “minimal”. For the same compound, in assay [2] (very sensitive lines (D05 and C008), P<0.05, FIG. 8), the “MAP1LC3B expression, induction compared to vehicle control” value is about 2 fold. Further, in assay [3], the “RNA Pol II recruitment at the MAP1LC3B promoter” value is reported as “increase” and the “reduction in H3K9me2 at the MAP1LC3B promoter” value is listed as “greater than 4 fold”. For the same compound, the PARP cleavage entry in assay [4] was “No observable PARP cleavage”. In addition, the proliferation result in assay [5] (D05 and C008, 5 μM, 48 hours, compared to vehicle control, data not shown) is “significant reduction in proliferation”. Besides, the number of cells result in assay [5] (over 48 hours treatment, 5 μM, FIG. 3A) is on record as “significantly decreased”.
